Assay results from the NIST ThermoML archive (doi:10.1016/j.jct.2016.03.035).
Values joined by “and” are separate entries in the source; they are usually repeats but may differ in a detail not shown here. Equal values may be shown once.

Assay: xn = mol fraction of the nth substance listed
Conditions: Gas, Buoyancy - hydrostatic balance with magnetic suspension - two sinkers

C [methane] + CCC
Conditions	mass density
273.15 K, 931.05 kPa, x1 = 0.5069	13.4744 kg/m3
273.15 K, 971.34 kPa, x1 = 0.5069	14.1245 kg/m3
273.15 K, 971.91 kPa, x1 = 0.5069	14.1339 kg/m3
273.15 K, 972.48 kPa, x1 = 0.5069	14.1428 kg/m3
273.15 K, 980.94 kPa, x1 = 0.5069	14.2794 kg/m3
273.15 K, 986.21 kPa, x1 = 0.5069	14.3656 kg/m3
273.15 K, 991.45 kPa, x1 = 0.5069	14.4504 kg/m3
273.15 K, 1009.5 kPa, x1 = 0.5069	14.7466 kg/m3 and 14.7469 kg/m3
273.15 K, 1009.6 kPa, x1 = 0.5069	14.7472 kg/m3
273.15 K, 1015.4 kPa, x1 = 0.5069	14.8425 kg/m3
273.15 K, 1015.5 kPa, x1 = 0.5069	14.8423 kg/m3
273.15 K, 1299.2 kPa, x1 = 0.7498	14.1894 kg/m3
273.15 K, 1700.4 kPa, x1 = 0.7498	19.0431 kg/m3 and 19.0434 kg/m3
273.15 K, 1999 kPa, x1 = 0.7498	22.8336 kg/m3
273.15 K, 1999.7 kPa, x1 = 0.7498	22.843 kg/m3
273.15 K, 2000.5 kPa, x1 = 0.7498	22.8522 kg/m3
273.15 K, 2295.4 kPa, x1 = 0.7498	26.7552 kg/m3
273.15 K, 2297.1 kPa, x1 = 0.7498	26.7787 kg/m3
273.15 K, 2297.8 kPa, x1 = 0.7498	26.7892 kg/m3
273.15 K, 2309.7 kPa, x1 = 0.7498	26.9494 kg/m3
273.15 K, 2310.5 kPa, x1 = 0.7498	26.9603 kg/m3
273.15 K, 2311.3 kPa, x1 = 0.7498	26.971 kg/m3
273.16 K, 500.9 kPa, x1 = 0.7498	5.2231 kg/m3
273.16 K, 1299.2 kPa, x1 = 0.7498	14.1894 kg/m3
274.02 K, 674.01 kPa, x1 = 0.2658	12.0842 kg/m3
274.13 K, 674.35 kPa, x1 = 0.2658	12.084 kg/m3
274.25 K, 674.71 kPa, x1 = 0.2658	12.0838 kg/m3
274.37 K, 675.08 kPa, x1 = 0.2658	12.0836 kg/m3
274.5 K, 675.47 kPa, x1 = 0.2658	12.0837 kg/m3
274.64 K, 675.87 kPa, x1 = 0.2658	12.0831 kg/m3
274.78 K, 676.29 kPa, x1 = 0.2658	12.0823 kg/m3
274.93 K, 676.74 kPa, x1 = 0.2658	12.0821 kg/m3
275.09 K, 677.21 kPa, x1 = 0.2658	12.0819 kg/m3
275.26 K, 677.71 kPa, x1 = 0.2658	12.0812 kg/m3
275.43 K, 678.23 kPa, x1 = 0.2658	12.0807 kg/m3
275.61 K, 678.78 kPa, x1 = 0.2658	12.0804 kg/m3
275.81 K, 679.35 kPa, x1 = 0.2658	12.0795 kg/m3
276.01 K, 679.96 kPa, x1 = 0.2658	12.0795 kg/m3
276.22 K, 680.58 kPa, x1 = 0.2658	12.0783 kg/m3
276.44 K, 681.24 kPa, x1 = 0.2658	12.0781 kg/m3
276.67 K, 681.92 kPa, x1 = 0.2658	12.0776 kg/m3
276.89 K, 682.58 kPa, x1 = 0.2658	12.0781 kg/m3
277.08 K, 683.2 kPa, x1 = 0.2658	12.0796 kg/m3
277.2 K, 683.7 kPa, x1 = 0.2658	12.0865 kg/m3
293.14 K, 149.9 kPa, x1 = 0.2658	2.2917 kg/m3 and 2.2913 kg/m3 and 2.2914 kg/m3
293.14 K, 205.57 kPa, x1 = 0.5069	2.5567 kg/m3 and 2.5566 kg/m3
293.14 K, 258.04 kPa, x1 = 0.2658	3.9962 kg/m3
293.14 K, 355.08 kPa, x1 = 0.2658	5.5657 kg/m3
293.14 K, 393.87 kPa, x1 = 0.5069	4.9714 kg/m3
293.14 K, 469.3 kPa, x1 = 0.2658	7.4654 kg/m3 and 7.465 kg/m3
293.14 K, 568.75 kPa, x1 = 0.2658	9.168 kg/m3 and 9.1681 kg/m3
293.14 K, 613.82 kPa, x1 = 0.5069	7.8848 kg/m3
293.14 K, 655.64 kPa, x1 = 0.2658	10.6962 kg/m3
293.14 K, 955.23 kPa, x1 = 0.2658	16.2976 kg/m3
293.14 K, 1006.2 kPa, x1 = 0.5069	13.3635 kg/m3 and 13.3634 kg/m3
293.14 K, 1056.3 kPa, x1 = 0.2658	18.3228 kg/m3 and 18.3227 kg/m3 and 18.3219 kg/m3
293.14 K, 1105.6 kPa, x1 = 0.2658	19.3403 kg/m3
293.14 K, 1105.7 kPa, x1 = 0.2658	19.3405 kg/m3
293.14 K, 1209.2 kPa, x1 = 0.5069	16.3578 kg/m3
293.14 K, 1399.6 kPa, x1 = 0.5069	19.2779 kg/m3
293.14 K, 1807.2 kPa, x1 = 0.5069	25.9505 kg/m3 and 25.9502 kg/m3
293.15 K, 205.57 kPa, x1 = 0.5069	2.5568 kg/m3
293.15 K, 258.04 kPa, x1 = 0.2658	3.9961 kg/m3 and 3.9961 kg/m3
293.15 K, 355.08 kPa, x1 = 0.2658	5.5657 kg/m3 and 5.5657 kg/m3
293.15 K, 393.88 kPa, x1 = 0.5069	4.9713 kg/m3 and 4.9715 kg/m3
293.15 K, 469.3 kPa, x1 = 0.2658	7.4651 kg/m3
293.15 K, 568.76 kPa, x1 = 0.2658	9.1679 kg/m3
293.15 K, 613.83 kPa, x1 = 0.5069	7.885 kg/m3 and 7.8849 kg/m3
293.15 K, 655.65 kPa, x1 = 0.2658	10.6965 kg/m3 and 10.6961 kg/m3
293.15 K, 803.71 kPa, x1 = 0.5069	10.4888 kg/m3
293.15 K, 803.74 kPa, x1 = 0.5069	10.4889 kg/m3
293.15 K, 803.76 kPa, x1 = 0.5069	10.4892 kg/m3
293.15 K, 857.4 kPa, x1 = 0.2658	14.4071 kg/m3 and 14.4072 kg/m3
293.15 K, 955.25 kPa, x1 = 0.2658	16.2978 kg/m3 and 16.2977 kg/m3
293.15 K, 1006.2 kPa, x1 = 0.5069	13.3633 kg/m3
293.15 K, 1105.7 kPa, x1 = 0.2658	19.3404 kg/m3
293.15 K, 1209.4 kPa, x1 = 0.5069	16.361 kg/m3
293.15 K, 1209.7 kPa, x1 = 0.5069	16.3642 kg/m3
293.15 K, 1399.6 kPa, x1 = 0.5069	19.2776 kg/m3
293.15 K, 1605.7 kPa, x1 = 0.5069	22.5751 kg/m3
293.15 K, 1605.8 kPa, x1 = 0.5069	22.5767 kg/m3 and 22.5758 kg/m3
293.15 K, 1807.2 kPa, x1 = 0.5069	25.9502 kg/m3
294.01 K, 1223.6 kPa, x1 = 0.2658	21.7481 kg/m3
294.04 K, 1223.7 kPa, x1 = 0.2658	21.7478 kg/m3
294.06 K, 1223.9 kPa, x1 = 0.2658	21.7477 kg/m3
294.09 K, 1224 kPa, x1 = 0.2658	21.7474 kg/m3
294.12 K, 1224.2 kPa, x1 = 0.2658	21.747 kg/m3
294.15 K, 1224.3 kPa, x1 = 0.2658	21.7472 kg/m3
294.18 K, 1224.5 kPa, x1 = 0.2658	21.7471 kg/m3
294.21 K, 1224.7 kPa, x1 = 0.2658	21.7472 kg/m3
294.25 K, 1224.9 kPa, x1 = 0.2658	21.7472 kg/m3
294.28 K, 1225.2 kPa, x1 = 0.2658	21.747 kg/m3
294.32 K, 1225.4 kPa, x1 = 0.2658	21.747 kg/m3
294.37 K, 1225.6 kPa, x1 = 0.2658	21.747 kg/m3
294.41 K, 1225.9 kPa, x1 = 0.2658	21.7466 kg/m3
294.46 K, 1226.2 kPa, x1 = 0.2658	21.7464 kg/m3
294.5 K, 1226.4 kPa, x1 = 0.2658	21.7465 kg/m3
294.56 K, 1226.7 kPa, x1 = 0.2658	21.7464 kg/m3
294.61 K, 1227 kPa, x1 = 0.2658	21.746 kg/m3
294.67 K, 1227.4 kPa, x1 = 0.2658	21.7447 kg/m3
294.74 K, 1227.7 kPa, x1 = 0.2658	21.744 kg/m3
294.81 K, 1228.1 kPa, x1 = 0.2658	21.7437 kg/m3
294.88 K, 1228.5 kPa, x1 = 0.2658	21.7435 kg/m3
294.95 K, 1228.9 kPa, x1 = 0.2658	21.743 kg/m3
295.11 K, 1229.9 kPa, x1 = 0.2658	21.7426 kg/m3
295.2 K, 1230.4 kPa, x1 = 0.2658	21.7417 kg/m3
295.29 K, 1230.9 kPa, x1 = 0.2658	21.741 kg/m3
295.39 K, 1231.4 kPa, x1 = 0.2658	21.7403 kg/m3
295.5 K, 1232 kPa, x1 = 0.2658	21.7395 kg/m3
295.6 K, 1232.6 kPa, x1 = 0.2658	21.7391 kg/m3
295.72 K, 1233.3 kPa, x1 = 0.2658	21.738 kg/m3
295.84 K, 1234 kPa, x1 = 0.2658	21.7373 kg/m3
295.97 K, 1234.7 kPa, x1 = 0.2658	21.7364 kg/m3
296.1 K, 1235.4 kPa, x1 = 0.2658	21.7356 kg/m3
296.24 K, 1236.2 kPa, x1 = 0.2658	21.7346 kg/m3
296.39 K, 1237 kPa, x1 = 0.2658	21.7335 kg/m3
296.55 K, 1237.9 kPa, x1 = 0.2658	21.7324 kg/m3
296.71 K, 1238.8 kPa, x1 = 0.2658	21.731 kg/m3
296.88 K, 1239.8 kPa, x1 = 0.2658	21.7302 kg/m3
297.07 K, 1240.8 kPa, x1 = 0.2658	21.7284 kg/m3
297.26 K, 1241.9 kPa, x1 = 0.2658	21.7273 kg/m3
297.45 K, 1243 kPa, x1 = 0.2658	21.7257 kg/m3
297.66 K, 1244.1 kPa, x1 = 0.2658	21.7254 kg/m3
297.86 K, 1245.3 kPa, x1 = 0.2658	21.7253 kg/m3
298.04 K, 1246.4 kPa, x1 = 0.2658	21.7265 kg/m3
298.15 K, 1247.3 kPa, x1 = 0.2658	21.7319 kg/m3
